The results in this text go back to PubChem BioAssay AID179 (DTP/NCI, 2004).

Values joined by “and” are separate entries in the source; they are usually repeats but may differ in a detail not shown here. Equal entries are not always repeated. Active and inactive are the calls of the source.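 The calls were made as follows: active = compounds giving half or more protection of infected cells from virus-caused growth loss, again on retest; inactive = the rest.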

The test system of the assay is CEM cells HIV-1 protection, formazan growth assay. The assay can be described thus: NCI AIDS Antiviral Assay. The following applies: for IC50: measured here: growth of uninfected CEM cells. Summed up:
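Category rules: moderately active means at least 50% protection on retest, and confirmed active means 100% protection reproducibly. The underlying data came from a formazan growth assay in HIV-1-infected CEM cells.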

Turning to `[N-]=[N+]=NC1(N=[N+]=[N-])C(=O)NN=C(c2ccccc2)C1=O` (stereo unspecified), the outcome was inactive. On to `NNc1[nH]c(=S)[nH]c1C(N)=O`, for which the EC50 (in general, the midpoint of the concentration-response curve) is over 200 µM and the IC50 (commonly the concentration that inhibits the measured activity by half) is over 200 µM. On to `O=C1N=NC2=C1c1c3ccccc3c(O)n1CC2`, for which the EC50 was over 200 µM and the IC50 amounted to 166 µM. On the same counts, the results for `CC(=O)Oc1ccc(/C=C/C(=O)OCCCOC(=O)/C=C/c2ccc(OC(C)=O)c(OC(C)=O)c2)cc1OC(C)=O` are over 100 µM and over 100 µM. On the same counts, the results for `Cc1cc(N(CCC#N)CCC#N)ccc1/C=C1/CN(N2C(=O)/C(=C/c3ccc(N(CCC#N)CCC#N)cc3C)N=C2c2ccccc2)C(c2ccccc2)=N1` are over 5.01 µM and over 5.01 µM. The like results for `C[C@H]1[C@H](N2CCCC2)O[Si](C(C)(C)C)(C(C)(C)C)[C@@H]1C` were, in that order, over 200 µM and over 200 µM. Consider `O=c1c2cnccc2cc2n1CCc1c-2[nH]c2ccccc12`, for which the EC50 was over 77.6 µM and the IC50 came to 10.2 µM. With `COc1c2c(cc3nc4ccccc4nc13)CCC(C(C)(C)O)C2` (stereo unspecified), the result was inactive. In the case of `CC(O)CCC(=O)NCCS(=O)(=O)O` (stereo unspecified), the EC50 was over 200 µM and the IC50 was over 200 µM.

For `Cc1nc(N)c(N2CCN(C(=O)O)CC2)c(=O)[nH]1`, the EC50 is over 200 µM and the IC50 is over 200 µM.

On to `O=C(CCc1cccc(O)c1)NCCCNC(=O)CCc1cccc(O)c1`, for which the EC50 is over 200 µM and the IC50 was over 200 µM.

For the molecule `O=c1[nH]c2ccc(CC(=S)N3CCOCC3)cc2s1`, the EC50 was over 200 µM and the IC50 is over 200 µM. On to `COc1c(NC(=O)CC(C)=O)[c]([Hg][O]C(C)=O)c(OC)c(Cl)[c]1[Hg][O]C(C)=O`, for which the EC50 was over 0.692 µM and the IC50 was over 0.692 µM.

As to `O=S(=O)(CC#CCO)c1ccc2ccccc2c1`, the outcome was inactive. With `O=C1C(=O)c2ccccc2C(O)=C1C1CCCCC1`, the EC50 is over 263 µM and the IC50 worked out at 40.7 µM.

For the molecule `CCOc1ccc(C(=O)Nc2ccc(C3=NCCN3)cc2)cc1C(=O)Nc1ccc(C2=NCCN2)cc1`, the EC50 is 2.95 µM and the IC50 amounted to 117 µM.

As to `CCC[CH2][Sn]([CH2]CCC)([O]C(=O)c1cccc(F)c1)[O]C(=O)c1cccc(F)c1`, the EC50 was over 10.2 µM and the IC50 was found to be 6.61 µM.

With `O=C(Cn1ccnc1[N+](=O)[O-])N(CCO)CCO`, the EC50 was over 977 µM and the IC50 was over 977 µM. As to `C#CC(C)(C)Oc1cc(O)c2c(=O)c3ccccc3n(C)c2c1`, the EC50 was over 23.4 µM and the IC50 is over 23.4 µM.

For `COC[C@@H](N=CN1CCc2cc(OC)c(OC)cc2[C@@H]1C)C(C)(C)C`, the EC50 is over 513 µM and the IC50 turned out to be 490 µM. For `C[n+]1c(-c2ccc(/C=N\NC(=O)c3cccc(C(=O)N/N=C/c4ccc(-c5cn6ccccc6[n+]5C)cc4)c3)cc2)cn2ccccc21`, the EC50 was 6.03 µM and the IC50 is 89.1 µM. The like results for `Clc1ccc(OCc2nnc(CCCCCCCCc3nnc(COc4ccc(Cl)cc4Cl)n3Nc3ccccc3)n2Nc2ccccc2)c(Cl)c1` were, in that order, over 0.501 µM and over 0.501 µM. The like results for `C=CCC(N)Cc1ccccc1` (stereo unspecified) were, in that order, over 200 µM and over 200 µM. On the same counts, the results for `CC(=O)C(=Cc1ccc(-c2ccccc2)cc1)C(C)=O` are over 19.5 µM and over 19.5 µM. As to `Nc1nc(N)c2ncn(C3C=CC(CO)CC3)c2n1` (stereo unspecified), the EC50 was over 200 µM and the IC50 was over 200 µM.

Turning to `Cc1nc(CC2C(CO[Si](C)(C)C(C)(C)C)OC(n3ccc(=O)[nH]c3=O)C2O[Si](C)(C)C(C)(C)C)no1` (stereo unspecified), the EC50 is over 200 µM and the IC50 was 6.61 µM.

`C=C1OC(=O)[C@]2([C@@H](/C=C/C)C=CC(=O)[C@H]2O)[C@@H]1O`: the EC50 was over 200 µM and the IC50 is over 200 µM.

As to `O=C1c2c(O)cccc2[C@H](O)[C@]23O[C@]12CC[C@]1(O)CCC[C@@H](O)[C@@H]13`, the EC50 was over 20 µM and the IC50 was 0.977 µM. For the molecule `CC1(C)CNC[C@](C)(OCCCO[C@@]2(C)CNCC(C)(C)NC2=O)C(=O)N1`, the EC50 was over 200 µM and the IC50 is over 200 µM.

For `CCOC(=O)CCCCCNc1nc(Cl)nc(Cl)n1`, the EC50 is over 200 µM and the IC50 is over 200 µM. With `CC1OC(OC2C(O)COC(OC3C(C)OC(OC4C(OC(=O)[C@]56CCC(C)(C)C[C@@H]5C5=CCC7[C@@]8(C)C[C@H](O)[C@H](OC9OC(CO)C(O)C(OC%10OC(CO)C(O)C(O)C%10O)C9O)[C@@](C)(CO)[C@@H]8CC[C@@]7(C)[C@]5(C)CC6)OCC(O)C4O)C(O)C3OC3OCC(O)(CO)C3O)C2O)C(O)C(O)C1O` (stereo partly specified), the EC50 was over 19.1 µM and the IC50 was determined as 12.3 µM. On the same counts, the results for `NC(=O)c1c([N+](=O)[O-])ncn1C1OC(CO)C(F)C1O` (stereo unspecified) are over 200 µM and over 200 µM. On the same counts, the results for `O=C(O)C1C2c3ccccc3C(c3ccccc32)C1C(=O)O` (stereo unspecified) are over 851 µM and over 851 µM. The like results for `CC(=O)OCc1nc2ncnc(N)c2[nH]1` were, in that order, over 631 µM and over 631 µM. With `Cc1ccc(-n2c(N)c(C#N)c3[nH]nc(N)c3c2=O)cc1`, the EC50 is over 200 µM and the IC50 was over 200 µM.

Regarding `C[C@]12CCC(=O)C(O)=C1CC[C@@H]1C2CC[C@]2(C)NC(=O)CCC12` (stereo partly specified), the EC50 was over 40.7 µM and the IC50 was over 40.7 µM. With `Cc1cccc(-n2c(C)nc3ccc(NC(=S)Nc4ccccc4)cc3c2=O)c1`, the EC50 was over 200 µM and the IC50 came to 110 µM. `Cc1cc(S(=O)(=O)Nc2n[nH]c(Nc3ccc(Cl)cc3)n2)c(S)cc1Cl`: the EC50 is over 100 µM and the IC50 is over 100 µM.

Regarding `C[C@]12C=CC(=O)C=C1CC[C@@H]1[C@@H]2CC[C@]2(C)OC(=O)CC[C@@H]12`, the EC50 was over 832 µM and the 50% inhibitory concentration (IC50) came to 224 µM.

Consider `COc1ccc(N=C2C(=Nc3ccc(OC)cc3)N(c3ccccc3)C(=S)N2N=C=C2Sc3ccccc3N2C)cc1`, for which the EC50 is over 200 µM and the concentration for half-maximal inhibition (IC50) is 25.7 µM. The like results for `Cc1ccc2oc(=O)c(-c3ccccc3)nc2c1` were, in that order, over 21.9 µM and over 21.9 µM. On the same counts, the results for `O=C1Nc2ccccc2C1(O)C/C(=N/O)c1ccc2ccccc2c1` (stereo unspecified) are over 107 µM and over 107 µM. The like results for `CCOC(=O)c1c(C)n(C)c2c1nnc1ccccc12` were, in that order, over 200 µM and 129 µM. Regarding `Cn1c(NC(=O)C(=O)NC23CC4CC(CC(C4)C2)C3)nc2ccccc21`, the result was inactive.

`CCCCCCCCSC1OC(CO)C(O)C(O)C1O` (stereo unspecified): the outcome was inactive. `Cn1cc(NC(=O)c2cc(NC(=O)CCCCCCCCCC(=O)Nc3cc(C(=O)Nc4cc(C(=O)NCCC(=N)N)n(C)c4)n(C)c3)cn2C)cc1C(=O)NCCC(=N)N`: the EC50 is 4.37 µM and the IC50 came out at 5.75 µM. On the same counts, the results for `O=c1c2ccccc2c(=O)n2n1C1C=CC2C1` are over 44.7 µM and over 44.7 µM. In the case of `O=NNc1ccc(SSc2ccc(NN=O)cc2)cc1`, the EC50 is over 200 µM and the IC50 was 79.4 µM. In the case of `CCOC(=O)C(Cc1ccccc1)C(=O)OCC`, the EC50 was over 105 µM and the IC50 is over 105 µM. In the case of `Cc1cc(-c2[nH]c(C(=O)O)cc2I)on1`, the EC50 was over 200 µM and the IC50 was over 200 µM. `c1ccc(-c2ccc(-c3cc4ccccc4[nH]3)cc2)cc1`: the EC50 is over 200 µM and the IC50 is over 200 µM. `N#C/C(=C/c1cccnc1)C(=O)c1ccccc1`: the EC50 is over 398 µM and the IC50 came out at 67.6 µM. Turning to `COc1ccc2[nH]c(S(=O)(=O)N3CC(CCl)c4ccc(N)cc43)cc2c1` (stereo unspecified), the EC50 is over 0.2 µM and the half-maximal inhibitory concentration (IC50) turned out to be 0.102 µM. The like results for `CCOC(=O)Cc1nc2sc(C)c(-c3ccccc3)c2c(=O)[nH]1` were, in that order, over 110 µM and over 110 µM.

As to `[Pd+2].[S-]c1ncccn1.[S-]c1ncccn1`, the EC50 is over 200 µM and the IC50 was found to be 0.107 µM. On the same counts, the results for `CCOC(=O)Nc1ccc2c(c1)c(CCCCCCc1nc3ccccc3c3ccc(NC(=O)OCC)cc13)nc1ccccc12` are over 100 µM and 21.4 µM. For `CC1(S)CC2C(CC1Sc1ccccc1)C2(C)C` (stereo unspecified), the EC50 was over 25.7 µM and the IC50 is over 25.7 µM.

With `COc1ccc(C2=C(OC(C)=O)c3cccn3-c3ccc(Cl)cc3S2)cc1`, the EC50 was over 200 µM and the IC50 worked out at 12.3 µM. For the molecule `CC(C)(C)CC(C)(C)c1ccc(OCCO)cc1`, the outcome was inactive.

Consider `CN(C)/C=N/c1nc2ncn(CCOC(=O)c3ccccc3)c2c(=O)[nH]1`, for which the EC50 was over 708 µM and the IC50 was over 708 µM. `CCCCCCCCCCCCCCCCN1c2ccccc2C(C)(C)C12C=Cc1cccc([N+](=O)[O-])c1O2` (stereo unspecified): the EC50 was over 200 µM and the IC50 was over 200 µM. For the molecule `Nc1ccc2[nH]c(C(=O)N3CC(CCl)c4c3cc(N)c3ccccc43)cc2c1` (stereo unspecified), the EC50 is over 0.2 µM and the IC50 came out at 0.00417 µM. On the same counts, the results for `N#CC1=C(O)NC(O)=C(C#N)C1c1ccc(Cl)cc1Cl` are over 17 µM and over 17 µM.

Turning to `Clc1ncnc2c1ncn2CCCCCCCCCCCCn1cnc2c(Cl)ncnc21`, the result was inactive. On to `CCCCCCCc1ccc(OC2OC(COC(C)=O)C(OC(C)=O)C(OC(C)=O)C2OC(C)=O)cc1` (stereo unspecified), for which the EC50 was over 91.2 µM; the IC50 is 49 µM and > 85.1 µM. Take `CC(C)(C)C1CCC2c3c([nH]c4ccccc34)C3C(=O)N(c4ccc(C(=O)O)cc4)C(=O)C3C2C1` (stereo unspecified): the EC50 was over 200 µM and the IC50 was 14.5 µM.

`CC1Cn2c(=O)[nH]c3cccc(c32)NC1=O` (stereo unspecified): the EC50 was over 200 µM and the IC50 came out at 44.7 µM.

Consider `Cc1c(C)c2cc3ccoc3cc2oc1=O`, for which the EC50 was over 83.2 µM and the IC50 is over 83.2 µM.

For `CN(C)c1ccc(/C=C(\NC(=O)c2ccccc2)C(=O)Nc2ccccc2C(=O)O)cc1`, the EC50 is over 100 µM and the IC50 was over 100 µM.
